Measured values as given in patent US9623009B2, “Veliparib in combination with carboplatin and paclitaxel for the treatment of non-small cell lung cancer in smokers” (AbbVie Inc., priority 2014, dated 2017).

Key:
[1] = tested on: metastatic or advanced non-small cell lung cancer (NSCLC); test: Phase 2 randomized double-blind study: PFS and OS with veliparib + carboplatin/paclitaxel versus placebo + carboplatin/paclitaxel; format: in vivo, human
Method: (§1) A Phase 2, randomized, double-blind, multi-center study was conducted evaluating the efficacy, safety, and tolerability of veliparib in combination with carboplatin and paclitaxel versus placebo in combination with carboplatin and paclitaxel in subjects with documented metastatic or advanced non-small cell lung cancer (NSCLC) as first-line chemotherapy. Patients were randomized in a 2:1 ratio to either veliparib+carboplatin/paclitaxel or placebo+carboplatin/paclitaxel. Patient randomization was stratified by histology (squamous cell versus non-squamous cell), and smoking history (current smoker versus never smoked versus past smoker). Screening procedures and baseline radiographic tumor assessments were performed within 21 days prior to the first day veliparib/placebo was administered. Radiographic tumor assessments were conducted every 6 weeks and were sent to a central imaging center for review. Dosing of oral veliparib/placebo (120 mg) began 2 days prior to the start of the carboplatin/paclitaxel and was given twice a day (BID) for 7 days. […] All subjects were to remain on study until reaching a protocol defined event of disease progression. Patients who completed 6 cycles of treatment remained on study/off study drugs until reaching an event of disease progression. Chemotherapy or biological therapy (maintenance therapy) was not allowed until disease progression. Patients who experienced toxicities due to carboplatin/paclitaxel or veliparib may have been given a delay in the dosing schedule or a dose modification.

clinical = test: clinical
Method: as §1
Pharmacokinetic parameters were evaluated for patients with chemical evidence of recent smoking (cotinine high^b, >10 ng/mL) compared with those without evidence of recent smoking (cotinine low, ≦10 ng/mL).

[2] = patients without chemical evidence of smoking

Row | Tmax, Mean ± SD (% CV) (clinical; human, in vivo, po) | Tmax (clinical; human, in vivo, po, Tmax, Mean ± SD (% CV)) | SMILES | HR for OS ([1]; light smokers (<39 pack-years)) | HR for PFS ([1]; light smokers (<39 pack-years)) | HR for OS [1, 2] | HR for PFS [1, 2] | differences in levels between cotinine high and cotinine low patients (clinical; cotinine high >10 ng/mL vs cotinine low ≦10 ng/mL)
1 | 1.05 ± 0.82 (78.3) hr | 1.34 h | C[C@]1(c2nc3c(C(N)=O)cccc3[nH]2)CCCN1 [Veliparib, 2-[(2R)-2-methylpyrrolidin-2-yl]-1H-benzimidazole-4-carboxamide] | 0.808 | 0.971 | 0.921 | 0.966 | 
2 |  |  | N.N.O=C([O-])C1(C(=O)[O-])CCC1.[Pt+2] [carboplatin] |  |  |  |  | no clear differences
